Residues, ends and D or L forms follow the SMILES beside them. Some results are limits rather than exact numbers.

Drawing on patent publication US11236129B2, “IL-17A binding peptides and medical uses thereof” (Dompe' Farmaceutici S.P.A., priority 2018, dated 2022), this text covers IC50 for 14 molecules.

In the assay the target is IL-17RA/IL17RC dimerization induced by IL-17A (Homo sapiens, UniProt Q16552). Put plainly: IL-17RA/IL17RC dimerization assay in response to IL-17A (PathHunter Cytokine Receptor Assay). The following applies: IL-17A at EC80; read-out: IC50 in IL-17RA/IL7RC dimerization assay. It is filed as cell-based. The protocol:
The peptides of Table 7 were tested for their ability to inhibit the binding of IL-17A to its receptor and the subsequent interaction of IL-17RA and IL17RC.
Interleukin receptor RA and RC dimerization assay (DiscoverX) was used to measure the interaction of the receptor chains IL-17RA and IL17RC upon activation by IL-17A in the absence or presence of the peptides of Table 7.
In the PathHunter® Cytokine Receptor Assay, one cytokine receptor chain is tagged with a small peptide epitope ProLink (PK) and the other chain is tagged with Enzyme Acceptor (EA). Ligand binding induces dimerization of the two receptors, facilitating complementation of PK and EA fragments. This interaction generates an active unit of b-galactosidase, which is detected using a chemiluminescent substrate. PathHunter cell lines were expanded from freezer stocks according to standard procedures. Cells were seeded in a total volume of 20 μL into white walled, 384-well microplates and incubated for the appropriate time prior to testing. For agonist activity inhibition, cells were incubated with sample to induce response. Intermediate dilution of sample stocks was performed to generate 5× sample in assay buffer. 5 μL of 5× sample was added to cells and incubated at 37° C. or room temperature for 60 minutes. Vehicle concentration was 1%. 5 μL of 6×EC80 agonist (IL-17A) in assay buffer was added to the cells and incubated at 37° C. for 6 to 16 hours depending on the assay. 1. […] For some assays, activity was detected using a high sensitivity detection reagent (PathHunter Flash Kit) to improve assay performance. In these assays, an equal volume of detection reagent (25 or 30 uL) was added to the wells, followed by a one hour incubation at room temperature. Microplates were read following signal generation with a PerkinElmer Envision™ instrument for chemiluminescent signal detection. Compound activity was analyzed using CBIS data analysis suite (ChemInnovation, CA). % Inhibition=100%×(1−(mean RLU of test sample−mean RLU of vehicle control)/(mean RLU of EC80 control−mean RLU of vehicle control)).

IL-17RA/IL17RC dimerization induced by IL-17A, sequence (Q16552 24-155): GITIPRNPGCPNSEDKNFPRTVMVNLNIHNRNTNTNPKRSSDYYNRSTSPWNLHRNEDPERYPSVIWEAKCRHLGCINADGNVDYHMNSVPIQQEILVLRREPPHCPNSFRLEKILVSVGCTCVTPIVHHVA

For the molecule `CC[C@H](C)[C@H](NC(=O)[C@H](Cc1c[nH]c2ccccc12)NC(=O)[C@H](CCC(=O)O)NC(=O)[C@H](Cc1ccc(O)cc1)NC(=O)[C@H](CC(C)C)NC(=O)[C@H](CC(=O)O)NC(=O)[C@H](C)NC(=O)[C@@H]1CCCN1C(=O)[C@@H](NC(=O)[C@@H](NC(=O)[C@@H](NC(=O)[C@H](CCSC)NC(=O)[C@@H](NC(=O)[C@@H](C)O[C@H]1[C@H](O[C@@H]2O[C@H](CO)[C@@H](O)[C@H](O)[C@H]2NC(C)=O)[C@@H](CO)OC(O)[C@@H]1NC(C)=O)[C@@H](C)CC)C(C)C)[C@@H](C)O)[C@@H](C)CC)C(=O)N[C@@H](CCC(=O)O)C(=O)N[C@@H](CCC(=O)O)C(N)=O` (some centres unmarked) [BIO-3], the IC50 was under 1000 nM.

For the molecule `CCCCCCCCCC(=O)N[C@H](C(=O)N[C@@H](CCSC)C(=O)N[C@H](C(=O)N[C@H](C(=O)N[C@H](C(=O)N1CCC[C@H]1C(=O)N[C@@H](C)C(=O)N[C@@H](CC(=O)O)C(=O)N[C@@H](CC(C)C)C(=O)N[C@@H](Cc1ccc(O)cc1)C(=O)N[C@@H](CCC(=O)O)C(=O)N[C@@H](Cc1c[nH]c2ccccc12)C(=O)N[C@H](C(=O)N[C@@H](CCC(=O)O)C(=O)N[C@@H](CCC(=O)O)C(N)=O)[C@@H](C)CC)[C@@H](C)CC)[C@@H](C)O)C(C)C)[C@@H](C)CC` [BIO-4], the IC50 was under 1000 nM.

As for `CC[C@H](C)[C@H](NC(=O)[C@@H](NC(=O)[C@@H](NC(=O)[C@H](Cc1c[nH]cn1)NC(=O)[C@@H](NC(C)=O)C(C)C)C(C)C)[C@@H](C)O)C(=O)N1CCC[C@H]1C(=O)N[C@@H](C)C(=O)N[C@@H](CC(N)=O)C(=O)N[C@@H](CC(C)C)C(=O)N[C@@H](Cc1c[nH]c2ccccc12)C(=O)N[C@@H](CCC(=O)O)C(=O)N[C@@H](Cc1c[nH]c2ccccc12)C(=O)N[C@H](C(=O)N[C@@H](CCCNC(=N)N)C(=O)N[C@@H](CCCNC(=N)N)C(N)=O)C(C)C` [SEQ ID NO: 116] (Ac-VHVTIPANLWEWVRR-NH2), the IC50 was under 500 nM.

In the case of `CC[C@H](C)[C@H](NC(=O)[C@@H](NC(=O)[C@@H](NC(=O)[C@H](Cc1c[nH]cn1)NC(=O)[C@@H](NC(C)=O)C(C)C)C(C)C)[C@@H](C)O)C(=O)N1CCC[C@H]1C(=O)N[C@@H](C)C(=O)N[C@@H](CC(=O)O)C(=O)N[C@@H](Cc1ccccc1)C(=O)N[C@@H](Cc1c[nH]c2ccccc12)C(=O)N[C@@H](CCC(=O)O)C(=O)N[C@@H](Cc1c[nH]c2ccccc12)C(=O)N[C@H](C(=O)N[C@@H](CCCNC(=N)N)C(=O)N[C@@H](CCCNC(=N)N)C(N)=O)C(C)C` [SEQ ID NO: 117] (Ac-VHVTIPADFWEWVRR-NH2), the IC50 was under 500 nM.

For `CC[C@H](C)[C@H](NC(=O)[C@@H](NC(=O)[C@@H](NC(=O)[C@H](Cc1c[nH]cn1)NC(=O)[C@@H](NC(C)=O)C(C)C)C(C)C)[C@@H](C)O)C(=O)N1CCC[C@H]1C(=O)N[C@@H](C)C(=O)N[C@@H](CC(=O)O)C(=O)N[C@@H](CC(C)C)C(=O)N[C@@H](Cc1ccc(O)cc1)C(=O)N[C@@H](CCC(=O)O)C(=O)N[C@@H](Cc1c[nH]c2ccccc12)C(=O)N[C@H](C(=O)N[C@@H](CCCNC(=N)N)C(=O)N[C@@H](CCCNC(=N)N)C(N)=O)C(C)C` [SEQ ID NO: 118] (Ac-VHVTIPADLYEWVRR-NH2), the IC50 was under 500 nM.

`CC[C@H](C)[C@H](NC(=O)[C@@H](NC(=O)[C@@H](NC(=O)[C@H](Cc1c[nH]cn1)NC(=O)[C@@H](NC(C)=O)C(C)C)C(C)C)[C@@H](C)O)C(=O)N1CCC[C@H]1C(=O)N[C@@H](C)C(=O)N[C@@H](CC(=O)O)C(=O)N[C@@H](CC(C)C)C(=O)N[C@@H](Cc1c[nH]c2ccccc12)C(=O)N[C@@H](CC(N)=O)C(=O)N[C@@H](Cc1c[nH]c2ccccc12)C(=O)N[C@H](C(=O)N[C@@H](CCCNC(=N)N)C(=O)N[C@@H](CCCNC(=N)N)C(N)=O)C(C)C` [SEQ ID NO: 119] (Ac-VHVTIPADLWNWVRR-NH2): the IC50 was under 500 nM.

`CC[C@H](C)[C@H](NC(=O)[C@@H](NC(=O)[C@@H](NC(=O)[C@H](Cc1c[nH]cn1)NC(=O)[C@@H](NC(C)=O)C(C)C)C(C)C)[C@@H](C)O)C(=O)N1CCC[C@H]1C(=O)N[C@@H](C)C(=O)N[C@@H](CC(=O)O)C(=O)N[C@@H](CC(C)C)C(=O)N[C@@H](Cc1c[nH]c2ccccc12)C(=O)N[C@@H](CCC(=O)O)C(=O)N[C@@H](Cc1ccccc1)C(=O)N[C@H](C(=O)N[C@@H](CCCNC(=N)N)C(=O)N[C@@H](CCCNC(=N)N)C(N)=O)C(C)C` [SEQ ID NO: 120] (Ac-VHVTIPADLWEFVRR-NH2): the IC50 was under 500 nM.

Take `CC[C@H](C)[C@H](NC(=O)[C@H](Cc1ccc(O)cc1)NC(=O)[C@@H](NC(=O)[C@H](Cc1c[nH]cn1)NC(=O)[C@@H](NC(C)=O)C(C)C)C(C)C)C(=O)N1CCC[C@H]1C(=O)N[C@@H](C)C(=O)N[C@@H](CCC(=O)O)C(=O)N[C@@H](CC(C)C)C(=O)N[C@@H](Cc1c[nH]c2ccccc12)C(=O)N[C@@H](CCC(=O)O)C(=O)N[C@@H](Cc1c[nH]c2ccccc12)C(=O)N[C@H](C(=O)N[C@@H](CCCNC(=N)N)C(=O)N[C@@H](CCCNC(=N)N)C(N)=O)C(C)C` [SEQ ID NO: 122] (Ac-VHVYIPAELWEWVRR-NH2): the IC50 was under 500 nM.

On to `CC[C@H](C)[C@H](NC(=O)[C@@H](NC(=O)[C@@H](NC(=O)[C@H](Cc1c[nH]cn1)NC(=O)[C@@H](NC(C)=O)C(C)C)C(C)C)[C@@H](C)O)C(=O)N1CCC[C@H]1C(=O)N[C@@H](C)C(=O)N[C@@H](CCC(=O)O)C(=O)N[C@@H](Cc1c[nH]c2ccccc12)C(=O)N[C@@H](Cc1c[nH]c2ccccc12)C(=O)N[C@@H](CCC(=O)O)C(=O)N[C@@H](Cc1c[nH]c2ccccc12)C(=O)N[C@H](C(=O)N[C@@H](CCCNC(=N)N)C(=O)N[C@@H](CCCNC(=N)N)C(N)=O)C(C)C` [SEQ ID NO: 123] (Ac-VHVTIPAEWWEWVRR-NH2), for which the IC50 was under 500 nM.

For `CC(=O)N[C@H](C(=O)N[C@@H](Cc1c[nH]cn1)C(=O)N[C@@H](Cc1ccccc1)C(=O)N[C@H](C(=O)N[C@@H](Cc1ccccc1)C(=O)N1CCC[C@H]1C(=O)N[C@@H](CCC(N)=O)C(=O)N[C@@H](CC(=O)O)C(=O)N[C@@H](CC(C)C)C(=O)N[C@@H](Cc1c[nH]c2ccccc12)C(=O)N[C@@H](CCC(=O)O)C(=O)N[C@@H](Cc1c[nH]c2ccccc12)C(=O)N[C@H](C(=O)N[C@@H](CCCNC(=N)N)C(=O)N[C@@H](CCCNC(=N)N)C(N)=O)C(C)C)[C@@H](C)O)C(C)C` [SEQ ID NO: 124] (Ac-VHFTFPQDLWEWVRR-NH2), the IC50 was under 500 nM.

With `CC(=O)N[C@H](C(=O)N[C@@H](Cc1c[nH]cn1)C(=O)N[C@@H](Cc1ccccc1)C(=O)N[C@H](C(=O)N[C@@H](Cc1ccccc1)C(=O)N1CCC[C@H]1C(=O)N[C@@H](CCC(N)=O)C(=O)N[C@@H](CC(=O)O)C(=O)N[C@@H](Cc1ccccc1)C(=O)N[C@@H](Cc1c[nH]c2ccccc12)C(=O)N[C@@H](CCC(=O)O)C(=O)N[C@@H](Cc1c[nH]c2ccccc12)C(=O)N[C@H](C(=O)N[C@@H](CCCNC(=N)N)C(=O)N[C@@H](CCCNC(=N)N)C(N)=O)C(C)C)[C@@H](C)O)C(C)C` [SEQ ID NO: 125] (Ac-VHFTFPQDFWEWVRR-NH2), the IC50 was under 500 nM.

For the molecule `CC[C@H](C)[C@H](NC(=O)[C@@H](NC(=O)[C@H](Cc1ccccc1)NC(=O)[C@H](Cc1c[nH]cn1)NC(=O)[C@@H](NC(C)=O)C(C)C)[C@@H](C)O)C(=O)N1CCC[C@H]1C(=O)N[C@@H](CCC(N)=O)C(=O)N[C@@H](CC(=O)O)C(=O)N[C@@H](CC(C)C)C(=O)N[C@@H](Cc1ccc(O)cc1)C(=O)N[C@@H](CCC(=O)O)C(=O)N[C@@H](Cc1c[nH]c2ccccc12)C(=O)N[C@H](C(=O)N[C@@H](CCCNC(=N)N)C(=O)N[C@@H](CCCNC(=N)N)C(N)=O)C(C)C` [SEQ ID NO: 126] (Ac-VHFTIPQDLYEWVRR-NH2), the IC50 was under 500 nM.

On to `CC(=O)N[C@H](C(=O)N[C@@H](Cc1c[nH]cn1)C(=O)N[C@@H](Cc1ccccc1)C(=O)N[C@H](C(=O)N[C@@H](Cc1ccccc1)C(=O)N1CCC[C@H]1C(=O)N[C@@H](CCC(N)=O)C(=O)N[C@@H](CC(=O)O)C(=O)N[C@@H](CC(C)C)C(=O)N[C@@H](Cc1c[nH]c2ccccc12)C(=O)N[C@@H](CC(N)=O)C(=O)N[C@@H](Cc1c[nH]c2ccccc12)C(=O)N[C@H](C(=O)N[C@@H](CCCNC(=N)N)C(=O)N[C@@H](CCCNC(=N)N)C(N)=O)C(C)C)[C@@H](C)O)C(C)C` [SEQ ID NO: 127] (Ac-VHFTFPQDLWNWVRR-NH2), for which the IC50 was under 500 nM.

`CC(=O)N[C@H](C(=O)N[C@@H](Cc1c[nH]cn1)C(=O)N[C@@H](Cc1ccccc1)C(=O)N[C@H](C(=O)N[C@@H](Cc1ccccc1)C(=O)N1CCC[C@H]1C(=O)N[C@@H](CCC(N)=O)C(=O)N[C@@H](CC(=O)O)C(=O)N[C@@H](CC(C)C)C(=O)N[C@@H](Cc1c[nH]c2ccccc12)C(=O)N[C@@H](CCC(=O)O)C(=O)N[C@@H](Cc1ccccc1)C(=O)N[C@H](C(=O)N[C@@H](CCCNC(=N)N)C(=O)N[C@@H](CCCNC(=N)N)C(N)=O)C(C)C)[C@@H](C)O)C(C)C` [SEQ ID NO: 128] (Ac-VHFTFPQDLWEFVRR-NH2): the IC50 is under 500 nM.
